Results taken from patent US20250313547A1, “CEREBLON LIGANDS AND BIFUNCTIONAL COMPOUNDS COMPRISING THE SAME” (Arvinas Operations, Inc., priority 2017, published 2025).

The compounds below were run against Estrogen receptor-alpha (ERα) (Homo sapiens (Human), UniProt P03372) (assay: ERα degradation assay using In-Cell Western in MCF7 cells). Details: 3 day incubation, read-out: ER degradation DC50.
Assay type: cell-based
Method: 3. Estrogen Receptor-Alpha (ERα) Degradation Assay Using in-Cell Western™ Assay for Table 5.
Degradation of ERα by claimed compounds were determined in MCF7 cells using an In-Cell Western™ assay. Briefly, MCF7 cells were plated in 96-well plates (2000 cells per well in 100 μl media) and incubated at 37° C. under an atmosphere of 5% CO2 in a humidified incubator overnight. One-hundred (100) μl of media containing test compound (at 2× concentration) was added to the appropriate wells to provide 11 serially decreasing concentrations (top final concentration, 1 μM then 3-fold less for the next 10 concentrations); a vehicle control (DMSO) was also added for each compound. For each experiment, all compounds were assayed in duplicate plates. Cells were then incubated for 3 or 5 days in the above-mentioned environment. The assay was terminated by removal of media, a single wash with ice-cold PBS and the addition of 50 μl paraformaldehyde (PFA: 4% in PBS). After 15 minutes in PFA at room temperature, the cells were permeabilized in Tris-phosphate-buffered saline with Tween (0.1%) (TBST) supplemented with Triton X-100 (0.5%) for 15 minutes. Cells were then blocked in BSA (TBST with BSA, 3%) for one hour. […] The cells were incubated overnight at 4° C. The cells were then washed thrice with TBST at room temperature and then incubated with anti-rabbit and anti-mouse fluorescently-labelled secondary antibodies (IRDye®; LI-COR; Lincoln, NE) in LI-COR blocking buffer (Catalog #927-50000) for one hour at room temperature. Following 3 washes with TBST, the buffer was removed and the plates were read on an Odyssey® infrared imaging system (LI-COR®; Lincoln, NE) at 700 nm and 800 nm. Using commercial software (ImageStudio™; LI-COR, Lincoln, NE), the staining intensity for ERα and tubulin in each well was quantified and exported for analysis. For each data point, ERα intensity was normalized to tubulin intensity and for each compound all normalized intensity values were normalized to the vehicle control. DC50 and Dmax values were determined following a 4-parameter IC50 curve fit using ACAS dose response module (McNeil & Co Inc.).

Sequence of Estrogen receptor-alpha (ERα) (P03372 whole entry): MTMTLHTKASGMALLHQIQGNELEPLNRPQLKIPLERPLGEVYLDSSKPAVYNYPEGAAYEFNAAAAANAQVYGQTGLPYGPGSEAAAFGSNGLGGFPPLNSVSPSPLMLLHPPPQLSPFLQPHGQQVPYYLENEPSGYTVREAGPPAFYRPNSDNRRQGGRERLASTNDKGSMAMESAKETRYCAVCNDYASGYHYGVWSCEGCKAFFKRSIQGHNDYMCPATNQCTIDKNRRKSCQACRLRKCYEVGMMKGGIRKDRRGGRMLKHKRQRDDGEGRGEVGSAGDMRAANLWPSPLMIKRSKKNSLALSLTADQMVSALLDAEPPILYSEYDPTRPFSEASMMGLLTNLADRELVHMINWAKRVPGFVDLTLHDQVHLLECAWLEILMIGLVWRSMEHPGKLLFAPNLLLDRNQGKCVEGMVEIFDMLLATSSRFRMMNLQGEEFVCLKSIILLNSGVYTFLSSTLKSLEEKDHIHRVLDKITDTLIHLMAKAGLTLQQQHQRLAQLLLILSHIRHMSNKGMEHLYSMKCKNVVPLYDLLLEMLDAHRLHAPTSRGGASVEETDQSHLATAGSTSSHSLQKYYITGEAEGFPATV

| DC50 | SMILES |
| --- | --- |
| ≥ 0.1 µM | Cc1nc2c(NCCN3CCN(CCOc4ccc(Oc5c(-c6ccc(Br)cc6)sc6cc(O)ccc56)cc4)CC3)cccc2c(=O)n1C1CCC(=O)NC1=O (centres unmarked) [PROTAC-107, 3-(8-((2-(4-(2-(4-((2-(4-bromophenyl)-6-hydroxybenzo[b]thiophen-3-yl)oxy)phenoxy)ethyl)piperazin-1-yl)ethyl)amino)-2-methyl-4-oxoquinazolin-3(4H)-yl)piperidine-2,6-dione] |
| ≥ 0.1 µM | Cc1nc2c(OCCN3CCN(CCOc4ccc(Oc5c(-c6ccc(Br)cc6)sc6cc(O)ccc56)cc4)CC3)cccc2c(=O)n1C1CCC(=O)NC1=O (centres unmarked) [PROTAC-108, 3-(8-(2-(4-(2-(4-((2-(4-bromophenyl)-6-hydroxybenzo[b]thiophen-3-yl)oxy)phenoxy)ethyl)piperazin-1-yl)ethoxy)-2-methyl-4-oxoquinazolin-3(4H)-yl)piperidine-2,6-dione] |

Same assay, conditions: 5 day incubation, read-out: ER degradation DC50

| DC50 | SMILES |
| --- | --- |
| 0.001 to 0.01 µM | CN(C(=O)c1ccc(N2CCN(CCCCCOc3ccc([C@@H]4c5ccc(O)cc5CC[C@@H]4c4ccccc4)cc3)CC2)cc1)C1CCC(=O)NC1=O (mixture of isomers) [PROTAC-90, rac-N-(2,6-dioxopiperidin-3-yl)-4-(4-(5-(4-((1R,2S)-6-hydroxy-2-phenyl-1,2,3,4-tetrahydronaphthalen-1-yl)phenoxy)pentyl)piperazin-1-yl)-N-methylbenzamide] |
| < 0.001 µM | O=C1CCC(n2cc(-c3ccc(N4CCN(CCCOc5ccc([C@@H]6c7ccc(O)cc7CC[C@@H]6c6ccccc6)cc5)CC4)cc3)cn2)C(=O)N1 (mixture of isomers) [PROTAC-110, rac-3-(4-(4-(4-(3-(4-((1R,2S)-6-hydroxy-2-phenyl-1,2,3,4-tetrahydronaphthalen-1-yl)phenoxy)propyl)piperazin-1-yl)phenyl)-1H-pyrazol-1-yl)piperidine-2,6-dione] |
| 0.001 to 0.01 µM | O=C1CCC(NC(=O)c2ccc(N3CCN(CCCCCOc4ccc([C@@H]5c6ccc(O)cc6CC[C@@H]5c5ccccc5)cc4)CC3)cn2)C(=O)N1 (mixture of isomers) [PROTAC-91, rac-N-(2,6-dioxopiperidin-3-yl)-5-(4-(5-(4-((1R,2S)-6-hydroxy-2-phenyl-1,2,3,4-tetrahydronaphthalen-1-yl)phenoxy)pentyl)piperazin-1-yl)picolinamide] |
| 0.001 to 0.01 µM | O=C1CCC(n2ncc(N3CCN(CC4CCN(c5ccc([C@@H]6c7ccc(O)cc7CC[C@@H]6c6ccccc6)cc5)CC4)CC3)cc2=O)C(=O)N1 (stereo partly drawn) [PROTAC-102, 3-[4-[4-[[1-[4-[(1R,2S)-6-hydroxy-2-phenyl-tetralin-1-yl]phenyl]-4-piperidyl]methyl]piperazin-1-yl]-6-oxo-pyridazin-1-yl]piperidine-2,6-dione] |
| 0.001 to 0.01 µM | O=C1CCC(N2CC(c3ccc(N4CCN(CC5CCN(c6ccc([C@@H]7c8ccc(O)cc8CC[C@@H]7c7ccccc7)cc6)CC5)CC4)cc3)=CC2=O)C(=O)N1 (stereo partly drawn) [PROTAC-89, 3-[3-[4-[4-[[1-[4-[(1R,2S)-6-hydroxy-2-phenyl-tetralin-1-yl]phenyl]-4-piperidyl]methyl]piperazin-1-yl]phenyl]-5-oxo-2H-pyrrol-1-yl]piperidine-2,6-dione] |
| 0.001 to 0.01 µM | O=C1CCC(n2ncc(N3CCN(CCCCCOc4ccc([C@@H]5c6ccc(O)cc6CC[C@@H]5c5ccccc5)cc4)CC3)cc2=O)C(=O)N1 (mixture of isomers) [PROTAC-100, rac-3-(4-(4-(5-(4-((1R,2S)-6-hydroxy-2-phenyl-1,2,3,4-tetrahydronaphthalen-1-yl)phenoxy)pentyl)piperazin-1-yl)-6-oxopyridazin-1(6H)-yl)piperidine-2,6-dione] |
| 0.001 to 0.01 µM | O=C1CCC(n2cnc(N3CCN(CCCCCOc4ccc([C@@H]5c6ccc(O)cc6CC[C@@H]5c5ccccc5)cc4)CC3)cc2=O)C(=O)N1 (mixture of isomers) [PROTAC-101, rac-3-(4-(4-(5-(4-((1R,2S)-6-hydroxy-2-phenyl-1,2,3,4-tetrahydronaphthalen-1-yl)phenoxy)pentyl)piperazin-1-yl)-6-oxopyrimidin-1(6H)-yl)piperidine-2,6-dione] |

What follows are compounds tested against immobilized CRBN protein (cereblon) (Homo sapiens (Human), UniProt Q96SW2) (assay: Surface plasmon resonance (SPR) KD determination on immobilized cereblon). Details: average of at least N=2, 1:1 fit, read-out: KD Binding to immobilized CRBN protein in SPR assay.
Method: The surface plasmon resonance (SPR) experiments were conducted on a Biacore3000 (GE Healthcare). Myc-tagged cereblon was immobilized on a carboxymethylated dextran surface (CM5) amine coupled to anti-Myc antibody to recognize the Myc tag. His-tagged cereblon protein was immobilized on a carboxymethylated dextran surface with nitriloacetic acid (NTA), taking advantage of NTA/Ni^2+ chelation. The prepared surface was allowed to equilibrate over three hours in running buffer (10 mM HEPES buffer @pH 7.4, 150 mM NaCl, 0.005% P20,2% DMSO).
All compounds were prepared in 100% DMSO stock plates with a top concentration of 5 mM in a 3× serial dilution. Compounds were transferred from the stock plate to the assay plate and diluted into running buffer containing no DMSO. All compounds were run as a six-concentration series with a final assay top concentration of 100 μM.
Data analysis was performed in Scrubber 2 (BioLogic software, Campbell, Australia). Blanks were subtracted and data was corrected for DMSO against a standard DMSO curve.

Sequence of immobilized CRBN protein (cereblon) (Q96SW2 whole entry): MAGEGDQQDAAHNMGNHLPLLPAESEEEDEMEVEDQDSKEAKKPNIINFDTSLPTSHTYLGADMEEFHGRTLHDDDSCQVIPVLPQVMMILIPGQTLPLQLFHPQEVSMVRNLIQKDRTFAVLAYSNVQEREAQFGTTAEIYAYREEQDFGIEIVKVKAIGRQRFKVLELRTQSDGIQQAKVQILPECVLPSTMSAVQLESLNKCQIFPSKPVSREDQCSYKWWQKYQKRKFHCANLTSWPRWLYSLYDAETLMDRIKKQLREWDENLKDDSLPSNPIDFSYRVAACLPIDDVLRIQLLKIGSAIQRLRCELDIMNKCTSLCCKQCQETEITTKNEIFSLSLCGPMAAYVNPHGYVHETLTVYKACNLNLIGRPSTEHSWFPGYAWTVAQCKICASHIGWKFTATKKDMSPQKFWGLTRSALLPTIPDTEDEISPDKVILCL

| Kd | SMILES |
| --- | --- |
| > 100 µM | O=C1c2ccccc2C(=O)N1CCn1ccc(=O)[nH]c1=O [compound 16] |
| > 100 µM | CCOc1ccn(C2CCC(=O)NC2=O)c(=O)c1 (centres unmarked) [compound 31] |
| > 100 µM | Cn1cc(N2C(=O)c3ccccc3C2=O)c(=O)[nH]c1=O [compound 21] |
| 1 to 10 µM | CCOc1cnn(C2CCC(=O)NC2=O)c(=O)c1 (centres unmarked) [compound 30] |
| 10 to 100 µM | O=C1CCC(N2C(=O)c3cc(F)c(NCCCCCCO)cc3C2=O)C(=O)N1 (centres unmarked) [compound 3] |
| 10 to 100 µM | O=c1ccn(-c2cccnc2)c(=O)[nH]1 [compound 40] |
| 10 to 100 µM | N#Cc1ccc(N2C(=O)c3ccccc3C2=O)c(=O)[nH]1 [compound 44] |
| > 100 µM | O=C1c2ccccc2C(=O)N1c1c[nH]c(=O)[nH]c1=O [compound 26] |
| 1 to 10 µM | O=C1CCC(N2C(=O)c3ccc(F)c(F)c3C2=O)C(=O)N1 (centres unmarked) [compound 9] |
| 10 to 100 µM | O=C1CCC(N2Cc3c(ccc(F)c3OCCCCCCO)C2=O)C(=O)N1 (centres unmarked) [compound 4] |
| > 100 µM | CC1(C)C(=O)NC(=O)N1C1CC2CCCCN2C1=O (centres unmarked) [compound 22] |
| > 100 µM | O=C1CCC(N2C(=O)c3ccccc3C2=O)C2(COC2)N1 (centres unmarked) [compound 14] |
| 1 to 10 µM | O=C1CCN(c2cncc3ccccc23)C(=O)N1 [compound 32] |
| 10 to 100 µM | Cc1c(-n2ccc(=O)[nH]c2=O)cnc2ccccc12 [compound 28] |
| > 100 µM | N#Cc1cn(-c2cccnc2)c(=O)[nH]c1=O [compound 38] |
| 10 to 100 µM | CCOc1cc(=O)n(C2CCC(=O)NC2=O)cn1 (centres unmarked) [compound 29] |
| > 100 µM | O=C1CN(C2Cc3ccccc3C2=O)C(=O)N1 (centres unmarked) [compound 35] |
| > 100 µM | O=C1c2cccc(F)c2C(=O)N1c1ccc(C(F)(F)F)[nH]c1=O [compound 7] |
| > 100 µM | CNc1ccccc1C(=O)NCCN1C(=O)CCNC1=O [compound 11] |
| > 100 µM | O=C1NC(C(F)(F)F)CCC1N1C(=O)c2cccc(F)c2C1=O (centres unmarked) [compound 6] |
| 10 to 100 µM | N#Cc1cn(-c2cnc3ccccc3c2)c(=O)[nH]c1=O [compound 23] |

| Kd | SMILES |
| --- | --- |
| 10 to 100 µM | O=C1CCC(N2Cc3cc(NCCCCCCO)c(F)cc3C2=O)C(=O)N1 (centres unmarked) [compound 5] |
| > 100 µM | CN1CC(N2C(=O)c3ccccc3C2=O)C(=O)NC1=O (centres unmarked) [compound 18] |
| > 100 µM | CNc1ccccc1C(=O)NCCN1CCC(=O)NC1=O [compound 10] |
| > 100 µM | CNc1ccccc1C(=O)NCCn1ccc(=O)[nH]c1=O [compound 12] |
| > 100 µM | CCOc1cnn(C2CCC(=O)NC2=O)c(=O)c1Cl (centres unmarked) [compound 15] |
| > 100 µM | O=C1NCC(N2C(=O)c3ccccc3C2=O)C(=O)N1 (centres unmarked) [compound 25] |
| > 100 µM | O=CN1CCC(N2C(=O)c3ccccc3C2=O)C(=O)N1 (centres unmarked) [compound 19] |
| > 100 µM | O=C1NC(=O)C(N2C(=O)c3cccc(F)c3C2=O)N1 (centres unmarked) [compound 24] |
| > 100 µM | O=c1ccn(-c2cnc3ccccc3c2)c(=O)[nH]1 [compound 33] |
| > 100 µM | O=c1ccn([C@H]2C[C@H](O)[C@@H](CO)O2)c(=O)[nH]1 [compound 37] |
| 10 to 100 µM | O=c1ccn(-c2cncc3ccccc23)c(=O)[nH]1 [compound 34] |
| > 100 µM | Cc1cn(-c2cccnc2)c(=O)[nH]c1=O [compound 39] |
| > 100 µM | O=C1CCC(N2C(=O)c3c(F)ccc(F)c3C2=O)C(=O)N1 (centres unmarked) [compound 8] |
| 10 to 100 µM | Cc1cc(C#N)[nH]c(=O)c1N1C(=O)c2ccccc2C1=O [compound 43] |
| > 100 µM | Cc1c(N2CCC(=O)NC2=O)cnc2ccccc12 [compound 27] |
| > 100 µM | Cc1ccncc1-n1cc(C#N)c(=O)[nH]c1=O [compound 36] |
| > 100 µM | Cc1cc(C(N)=O)[nH]c(=O)c1N1C(=O)c2ccccc2C1=O [compound 41] |
| > 100 µM | O=C1CCC(N2C(=O)c3ccc(F)cc3C2=O)C(=O)N1 (centres unmarked) [compound 17] |
| > 100 µM | O=C1CCC(N2Cc3ccccc3C2=O)C2(COC2)N1 (centres unmarked) [compound 20] |
| > 100 µM | NC(=O)c1ccc(N2C(=O)c3ccccc3C2=O)c(=O)[nH]1 [compound 42] |
